Here are results for 2 molecules from patent US6316411A, “Protection against ischemia and reperfusion injury” (University of Kentucky Research Foundation, priority 2000, dated 2001).

The subject of one test is mouse vas deferens. Description: Mouse vas deferens (m.v.d.) contractility assay. The following applies: FIG. 8; 6000 nM glibenclamide with 1000 nM compound-D. As for the experimental part:
Glibenclamide, a KATP channel blocker, blocked the inhibition of contraction of mouse vas deferens induced by compound-D SEQ ID NO:1. With reference to FIG. 8, the effect of administration of 1000 nM compound-D SEQ ID NO:1 alone (open bar) versus 1000 nM compound-D SEQ ID NO:1 with 6000 nM glibenclamide (hatched bar) on contractility of mouse vas deferens (m.v.d.) (n=6) is shown. […] (n=2).

The test system of another test is isolated rat hearts. Description: Isolated perfused rat heart (Langendorff), 20 min global ischemia and 120 min reperfusion after 24 h pretreatment. Particulars: FIG. 7, pretreated 24 h prior to ischemia, compound-D 2.0 mg/kg and/or naltrexone 3 mg/kg, 20 min ischemia, control about 27%. Type of test: in vivo. As for the experimental part: Compound-D SEQ ID NO:1, at a dose of 2 mg/kg and solubilized as described above, was administered by tail vein injection into rats weighing between about 350-400 g (number of animals (n)=6). Control rats (n=6) were injected in the same manner with an equal volume of 0.9% NaCI. After 24 h, the hearts from both treated and control animals were excised and perfused in a modified Langendorff perfusion apparatus at 37° C. using oxygenated Krebs-Henseleit buffer as the perfusate, as known to one skilled in the art. Coronary perfusion pressure was maintained at 70 mm Hg by regulating coronary flow. All hearts were paced at […] (300 beats per minute, bpm) except during ischemia. A saline-filled balloon was inserted in the left ventricle to measure developed pressure (DP) and end-diastolic pressure (EDP) in mm Hg. After 15 min equilibration, both groups were subjected to 20 min zero-flow global ischemia, and then were reperfused for 120 min.
Left ventricles were isolated and divided into three segments along their short axis, stained with triphenyltetrazolium chloride, and stored in formalin. Infarct size was measured on digitized images and expressed as a per centage of myocardium. Data were expressed as mean plus or minus standard error of the mean (±SEM) and were analyze using a […] Student's t-Test. Confidence limits were established at 95%. […]

Regarding `COc1ccc(Cl)cc1C(=O)NCCc1ccc(S(=O)(=O)NC(=O)NC2CCCCC2)cc1` [Glibenclamide], the “effect of glibenclamide on compound-D suppressed m.v.d. contractions” value with mouse vas deferens is listed as “restored m.v.d. contractions”.

With `O=C1CC[C@@]2(O)[C@H]3Cc4ccc(O)c5c4[C@@]2(CCN3CC2CC2)[C@H]1O5` [naltrexone], the infarct size result with isolated rat hearts is “about 14.5%”.
